Source: the supplement of paper PMC4862054

Assays:
Conditions in all cases: incubation time: 72 h
[1] = test system: BT-474; experiment: normalised response (% of control), CellTiter-Glo; higher = more viable cells (100 = DMSO, 0 = benzethonium chloride kill control)
Method in brief: (§1)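 In 384-well plates holding compound at 5 concentrations in 10-fold steps over a 10,000-fold range specific to each compound, breast cancer cell lines were seeded as 20 µl suspension and incubated 72 h. CellTox Green fluorescence was measured at 485/520 nm, after which CellTiter-Glo luminescence was measured following 10 min at room temperature. Plate signals were normalised to 0.1 % DMSO (100) and a positive kill control (0), and each value is the normalised signal at a single concentration.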

[2] = test system: BT-549; experiment: as above
Method in brief: as §1

[3] = test system: CAL-120; experiment: as above
Method in brief: as §1

[4] = test system: CAL-148; experiment: as above
Method in brief: as §1

[5] = test system: CAL-51; experiment: as above
Method in brief: as §1

[6] = test system: CAL-85-1; experiment: as above
Method in brief: as §1

[7] = test system: DU-4475; experiment: as above
Method in brief: as §1

[8] = test system: HCC1143; experiment: as above
Method in brief: as §1

[9] = test system: HCC1599; experiment: as above
Method in brief: as §1

[10] = test system: HCC1937; experiment: as above
Method in brief: as §1

[11] = test system: HDQ-P1; experiment: as above
Method in brief: as §1

[12] = test system: Hs578T; experiment: as above
Method in brief: as §1

[13] = test system: MCF-10A; experiment: as above
Method in brief: as §1

[14] = test system: MDA-MB-231; experiment: as above
Method in brief: as §1

[15] = test system: MDA-MB-436; experiment: as above
Method in brief: as §1

[16] = test system: MDA-MB-453; experiment: as above
Method in brief: as §1

[17] = test system: MDA-MB-468; experiment: as above
Method in brief: as §1

[18] = test system: MFM-223; experiment: as above
Method in brief: as §1

[19] = test system: SK-BR-3; experiment: as above
Method in brief: as §1

[20] = test system: BT-474; experiment: normalised viability (% of control), CellTiter-Blue; higher = more viable cells (100 = DMSO, 0 = benzethonium chloride kill control)
Method in brief: (§2)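 Breast cancer cell lines in 20 µl suspension were seeded onto 384-well plates pre-loaded with compound dissolved in 5 µl medium, then incubated 72 h. CellTiter-Blue reagent (2.5 µl) was added for 2 h at 37 °C and fluorescence read at 560/590 nm. Each plate was normalised to vehicle (100) and a positive kill control (0), with Z'-factor quality control. The value is normalised viability at one listed concentration of the series.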

[21] = test system: BT-549; experiment: as above
Method in brief: as §2

[22] = test system: CAL-120; experiment: as above
Method in brief: as §2

[23] = test system: CAL-148; experiment: as above
Method in brief: as §2

[24] = test system: CAL-51; experiment: as above
Method in brief: as §2

[25] = test system: CAL-85-1; experiment: as above
Method in brief: as §2

[26] = test system: DU-4475; experiment: as above
Method in brief: as §2

[27] = test system: HCC1143; experiment: as above
Method in brief: as §2

[28] = test system: HCC1599; experiment: as above
Method in brief: as §2

[29] = test system: HCC1937; experiment: as above
Method in brief: as §2

[30] = test system: HDQ-P1; experiment: as above
Method in brief: as §2

[31] = test system: Hs578T; experiment: as above
Method in brief: as §2

[32] = test system: MDA-MB-231; experiment: as above
Method in brief: as §2

[33] = test system: MDA-MB-436; experiment: as above
Method in brief: as §2

[34] = test system: MDA-MB-453; experiment: as above
Method in brief: as §2

[35] = test system: MDA-MB-468; experiment: as above
Method in brief: as §2

[36] = test system: MFM-223; experiment: as above
Method in brief: as §2

[37] = test system: SK-BR-3; experiment: as above
Method in brief: as §2

Compound | normalised response [1] [%] | normalised response [2] [%] | normalised response [3] [%] | normalised response [4] [%] | normalised response [5] [%] | normalised response [6] [%] | normalised response [7] [%] | normalised response [8] [%] | normalised response [9] [%] | normalised response [10] [%] | normalised response [11] [%] | normalised response [12] [%] | normalised response [13] [%] | normalised response [14] [%] | normalised response [15] [%] | normalised response [16] [%] | normalised response [17] [%] | normalised response [18] [%] | normalised response [19] [%] | normalised viability [20] [%] | normalised viability [21] [%] | normalised viability [22] [%] | normalised viability [23] [%] | normalised viability [24] [%] | normalised viability [25] [%] | normalised viability [26] [%] | normalised viability [27] [%] | normalised viability [28] [%] | normalised viability [29] [%] | normalised viability [30] [%] | normalised viability [31] [%] | normalised viability [32] [%] | normalised viability [33] [%] | normalised viability [34] [%] | normalised viability [35] [%] | normalised viability [36] [%] | normalised viability [37] [%]
NC(=O)c1cccc2cn(-c3ccc([C@@H]4CCCNC4)cc3)nc12 [MK-4827] (1 nM) | 113 | 102 | 101 | 115 | 99.9 | 102 | 98.1 | 105 | 110 | 102 | 100 | 103 | 102 | 101 | 96.9 | 99.3 | 104 | 101 | 112 | 121 | 112 | 90.2 | 105 | 108 | 82.1 | 102 | 92.1 | 97.1 | 97.3 | 85.9 | 94.2 | 96 | 80.8 | 97.8 | 91.7 | 92.2 | 95.5
C[C@@H]1C[C@H]2[C@@H]3CCC4=CC(=O)C=C[C@]4(C)[C@@]3(F)[C@@H](O)C[C@]2(C)[C@@]1(O)C(=O)CO [Dexamethasone] (1 nM) | 107 | 102 | 94.3 | 89.2 | 116 | 102 | 100 | 96.2 | 100 | 98.9 | 104 | 107 | 90 | 112 | 115 | 102 | 94.6 | 94.7 | 95.6 | 119 | 157 | 82.3 | 109 | 95.6 | 107 | 96.6 | 91.8 | 84 | 82 | 92.9 | 93.5 | 126 | 85.8 | 94.3 | 106 | 91.6 | 111
CC[C@@H]1C(=O)N(C)c2cnc(Nc3ccc(C(=O)N[C@H]4CC[C@H](N5CCN(CC6CC6)CC5)CC4)cc3OC)nc2N1C(C)C [Volasertib] (0.1 nM) | 97.7 | 104 | 98.5 | 93 | 111 | 102 | 95.2 | 90.6 | 96.6 | 98.9 | 93.2 | 105 | 88.1 | 100 | 80.4 | 108 | 97.3 | 96.2 | 103 | 107 | 108 | 92.4 | 110 | 116 | 88.4 | 103 | 96.3 | 88.5 | 101 | 94.3 | 102 | 110 | 117 | 101 | 121 | 92 | 118
CC/C(=C(\c1ccccc1)c1ccc(OCCN(C)C)cc1)c1ccccc1 [Tamoxifen] (1 nM) | 105 | 96.4 | 99 | 103 | 99.3 | 101 | 98.6 | 109 | 94.3 | 102 | 103 | 102 | 111 | 106 | 109 | 110 | 104 | 102 | 103 | 81.7 | 81.6 | 104 | 113 | 90.2 | 110 | 104 | 104 | 84.7 | 88.8 | 105 | 118 | 95.1 | 96 | 107 | 106 | 93.3 | 102
Nc1nc(Cl)nc2c1ncn2[C@@H]1O[C@H](CO)[C@@H](O)[C@@H]1F [Clofarabine] (1 nM) | 101 | 94.8 | 101 | 90.5 | 79.9 | 97.4 | 99 | 96.7 | 90 | 98.1 | 98.3 | 103 | 107 | 101 | 97.4 | 106 | 94.9 | 101 | 99.1 | 89.5 | 93.7 | 90.4 | 91 | 108 | 87 | 101 | 87.1 | 101 | 93.7 | 118 | 116 | 90.3 | 100 | 107 | 111 | 93 | 91
COc1cc2c(Oc3ccc(NC(=O)C4(C(=O)Nc5ccc(F)cc5)CC4)cc3F)ccnc2cc1OCCCN1CCOCC1 [Foretinib] (0.1 nM) | 105 | 104 | 100 | 109 | 74.1 | 100 | 102 | 99 | 93.4 | 99.2 | 105 | 89.5 | 97.2 | 99.7 | 107 | 109 | 108 | 102 | 107 | 99.9 | 94.6 | 92.1 | 107 | 91.8 | 90.2 | 100 | 100 | 98.9 | 101 | 75.8 | 110 | 102 | 95.8 | 95 | 101 | 97 | 89
CO[C@H]1C[C@@H]2CC[C@@H](C)[C@@](O)(O2)C(=O)C(=O)N2CCCC[C@H]2C(=O)O[C@H]([C@H](C)C[C@@H]2CC[C@@H](O)[C@H](OC)C2)CC(=O)[C@H](C)/C=C(\C)[C@@H](O)[C@@H](OC)C(=O)[C@H](C)C[C@H](C)/C=C/C=C/C=C/1C [Sirolimus] (0.1 nM) | 101 | 89.9 | 94 | 101 | 96.3 | 96.1 | 98.9 | 102 | 108 | 103 | 100 | 102 | 108 | 96.9 | 94.3 | 95 | 93.8 | 100 | 91.1 | 84.2 | 88 | 102 | 105 | 78.8 | 93.9 | 94.8 | 105 | 91.9 | 85.3 | 100 | 74.4 | 85.2 | 103 | 99.4 | 94.3 | 80.3 | 90.8
O=NN(CCCl)C(=O)NC1CCCCC1 [Lomustine] (1 nM) | 101 | 94.2 | 99.1 | 94.4 | 91.6 | 97.6 | 93.9 | 105 | 105 | 94.9 | 97.2 | 106 | 107 | 97.5 | 98.2 | 108 | 99.3 | 97.5 | 104 | 88 | 107 | 91.6 | 107 | 108 | 98.8 | 102 | 95.2 | 109 | 86.3 | 110 | 100 | 97.3 | 109 | 114 | 100 | 83.4 | 93.6
